In US20250179103A1, “6-OXODECAHYDROPYRROLO[1,2-A][1,5]DIAZOCINE AND 6-OXODECAHYDRO-4H-PYRROLO[2,1-D][1,5]THIAZOCINE DERIVATIVES AS STAT3 AND STAT6 MODULATORS FOR THE TREATMENT OF CANCER AND INFLAMMATORY CONDITIONS” (Recludix Pharma, Inc., priority 2022, published 2025):

What was measured:
[1] = molecular target: T1, Recombinant STAT3 protein (STAT3(G127-I722)) (Homo sapiens, UniProt P40763); experiment: STAT3 Fluorescence Polarization (FP) Assay; type: binding; details: STAT3(G127-I722) 25 nM, probe 5-FAM-GpYLPQTV-NH2 2 nM, 45-minute incubation
T1 construct: Recombinant STAT3 protein (STAT3(G127-I722))
T1 sequence (P40763 127-722): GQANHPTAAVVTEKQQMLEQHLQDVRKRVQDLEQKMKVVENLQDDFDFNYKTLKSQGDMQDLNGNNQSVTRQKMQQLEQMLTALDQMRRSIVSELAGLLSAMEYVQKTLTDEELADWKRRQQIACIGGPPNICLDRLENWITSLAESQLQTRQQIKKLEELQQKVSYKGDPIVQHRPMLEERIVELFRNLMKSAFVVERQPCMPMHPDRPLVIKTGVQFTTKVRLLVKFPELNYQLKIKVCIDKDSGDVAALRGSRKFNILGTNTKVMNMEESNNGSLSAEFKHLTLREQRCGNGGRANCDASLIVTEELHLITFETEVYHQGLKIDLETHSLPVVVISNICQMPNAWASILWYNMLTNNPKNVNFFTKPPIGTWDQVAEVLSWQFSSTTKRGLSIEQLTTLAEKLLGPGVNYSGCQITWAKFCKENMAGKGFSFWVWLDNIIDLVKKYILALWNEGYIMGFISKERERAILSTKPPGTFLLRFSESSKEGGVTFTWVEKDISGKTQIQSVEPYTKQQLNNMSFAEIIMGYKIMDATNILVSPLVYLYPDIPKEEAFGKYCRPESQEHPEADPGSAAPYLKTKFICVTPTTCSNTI
Summary of the method: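 Fluorescence polarization after a 45-min room-temperature incubation measured compound displacement of a 2 nM fluorescein-labelled phosphotyrosine peptide (5-FAM-GpYLPQTV-NH2) from 25 nM recombinant STAT3(G127-I722). Buffer was 10 mM HEPES pH 7.4 with 1% DMSO final. IC50s were fitted by nonlinear regression of mP against log concentration.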

[2] = molecular target: T2, Recombinant STAT6 protein (STAT6(W123-T658)) (Homo sapiens, UniProt P42226); experiment: STAT6 Fluorescence Polarization (FP) Assay; type: binding; details: STAT6(W123-T658) 250 nM, probe 5-FAM-ApYKPFQDLI-NH2 2 nM, 45-minute incubation
T2 construct: Recombinant STAT6 protein (STAT6(W123-T658))
T2 sequence (P42226 123-658): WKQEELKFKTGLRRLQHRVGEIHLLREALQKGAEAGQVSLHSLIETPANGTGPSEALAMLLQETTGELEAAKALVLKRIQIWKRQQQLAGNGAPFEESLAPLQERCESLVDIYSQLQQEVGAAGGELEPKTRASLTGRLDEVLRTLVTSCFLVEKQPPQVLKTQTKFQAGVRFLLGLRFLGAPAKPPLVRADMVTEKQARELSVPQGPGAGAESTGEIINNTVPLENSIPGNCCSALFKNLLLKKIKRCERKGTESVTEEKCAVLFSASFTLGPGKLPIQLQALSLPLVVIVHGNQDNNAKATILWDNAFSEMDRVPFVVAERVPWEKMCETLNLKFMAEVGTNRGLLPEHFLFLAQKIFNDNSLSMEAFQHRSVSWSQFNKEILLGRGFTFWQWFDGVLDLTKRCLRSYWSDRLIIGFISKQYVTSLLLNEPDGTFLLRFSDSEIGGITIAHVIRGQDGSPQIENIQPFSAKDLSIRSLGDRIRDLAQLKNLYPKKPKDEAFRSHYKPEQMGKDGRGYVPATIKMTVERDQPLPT
Summary of the method: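 Displacement of a fluorescent phosphotyrosine peptide (5-FAM-ApYKPFQDLI-NH2, 2 nM) from STAT6(W123-T658) (250 nM), 1% DMSO, pH 7.4 HEPES buffer. After 45 min at room temperature, polarization (mP) was plotted versus log compound concentration and fitted by nonlinear regression to give IC50.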

Cc1ccc2onc(C(=O)N3CC[C@H]4CC[C@@H](C(=O)N5C(=O)N(c6cccnc6)C(=O)C56CC6)N4C(=O)[C@@H](NC(=O)c4ccc5ccc([C@H](F)P(=O)(O)O)cc5c4)C3)c2c1 [Compound 386, ((R)-(7-(((5S,8S, 10aR)-8-(5,7-dioxo-6-(pyridin-3-yl)-4,6-diazaspiro[2.4]heptane-4-carbonyl)-3-(5-methylbenzo[d]isoxazole-3-carbonyl)-6-oxodecahydropyrrolo [1,2-a][1,5]diazocin-5-yl)carbamoyl)naphthalen-2-yl)fluoromethyl)phosphonic acid]
IC50 [1]: > 10000 nM
IC50 [2]: ≤ 300 nM

Cc1ccc2onc(C(=O)N3CC[C@H]4CC[C@@H](C(=O)N5C[C@H](c6ccn(C)c(=O)c6)CC56CC6)N4C(=O)[C@@H](NC(=O)c4ccc5ccc(C(F)(F)P(=O)(O)O)cc5c4)C3)c2c1 [Compound 382, (difluoro(7-(((5S,8S, 10aR)-8-((S)-6-(1-methyl-2-oxo-1,2-dihydropyridin-4-yl)-4-azaspiro[2.4]heptane-4-carbonyl)-3-(5-methylbenzo[d]isoxazole-3-carbonyl)-6-oxodecahydropyrrolo [1,2-a][1,5]diazocin-5-yl)carbamoyl)naphthalen-2-yl)methyl)phosphonic acid]
IC50 [1]: 1000 to 10000 nM
IC50 [2]: ≤ 300 nM

CC(C)C(=O)N1CC[C@H]2CC[C@@H](C(=O)N(C)c3ccccc3)N2C(=O)[C@@H](NC(=O)c2cc3cc(C(F)(F)P(=O)(O)O)ccc3[nH]2)C1 [Compound 221, (difluoro(2-(((5S,8S,10aR)-3-isobutyryl-8-(methyl(phenyl)carbamoyl)-6-oxodecahydropyrrolo[1,2-a][1,5]diazocin-5-yl)carbamoyl)-1H-indol-5-yl)methyl)phosphonic acid]
IC50 [1]: 1000 to 10000 nM
IC50 [2]: 300 to 3000 nM

CC(=O)N1CC[C@H]2CC[C@@H](C(=O)N3C[C@H](C#N)[C@@]4(C3)C(=O)Nc3ccccc34)N2C(=O)[C@@H](NC(=O)c2cc3cc(C(F)(F)P(=O)(O)O)ccc3s2)C1 (single isomer, unassigned) [Compound 13, ((2-(((5S,8S,10aR)-3-acetyl-8-((3R,4′R or 3S,4′S)-4′-cyano-2-oxospiro[indoline-3,3′-pyrrolidine]-1′-carbonyl)-6-oxodecahydropyrrolo[1,2-a][1,5]diazocin-5-yl)carbamoyl)benzo[b]thiophen-5-yl)difluoromethyl)phosphonic acid]
IC50 [1]: 1000 to 10000 nM
IC50 [2]: 300 to 3000 nM

Cc1ccc2onc(C(=O)N3CC[C@H]4CC[C@@H](C(=O)N5C[C@@H](C#N)[C@H](c6ccccc6)C5)N4C(=O)[C@@H](NC(=O)c4ccc5ccc(C(F)(F)P(=O)(O)O)cc5c4)C3)c2c1 (single isomer, unassigned) [Compound 375]
IC50 [1]: 1000 to 10000 nM
IC50 [2]: ≤ 300 nM

CC(=O)N1CC[C@H]2CC[C@@H](C(=O)N(C)c3ccc(OC(F)(F)F)cc3)N2C(=O)[C@@H](NC(=O)c2cc3cc(C(F)(F)P(=O)(O)O)ccc3[nH]2)C1 [Compound 135, ((2-(((5S,8S,10aR)-3-acetyl-8-(methyl(4-(trifluoromethoxy)phenyl)carbamoyl)-6-oxodecahydropyrrolo[1,2-a][1,5]diazocin-5-yl)carbamoyl)-1H-indol-5-yl)difluoromethyl)phosphonic acid]
IC50 [1]: 1000 to 10000 nM
IC50 [2]: 300 to 3000 nM

Cc1ccc2onc(C(=O)N3CC[C@H]4CC[C@@H](C(=O)N5CCOCC5)N4C(=O)[C@@H](NC(=O)c4ccc5c(C#N)cc(CP(=O)(O)O)cc5c4)C3)c2c1 [Compound 384, ((4-cyano-7-(((5S,8S, 10aR)-3-(5-methylbenzo[d]isoxazole-3-carbonyl)-8-(morpholine-4-carbonyl)-6-oxodecahydropyrrolo [1,2-a][1,5]diazocin-5-yl)carbamoyl)naphthalen-2-yl)methyl) phosphonic acid]
IC50 [1]: > 10000 nM
IC50 [2]: 300 to 3000 nM

CC(=O)N1CC[C@H]2CC[C@@H](C(=O)N(C)c3ccc(C4(C)COC4)cc3)N2C(=O)[C@@H](NC(=O)c2cc3cc(C(F)(F)P(=O)(O)O)ccc3s2)C1 [Compound 47, ((2-(((5S,8S,10aR)-3-acetyl-8-(methyl(4-(3-methyloxetan-3-yl)phenyl)carbamoyl)-6-oxodecahydropyrrolo[1,2-a][1,5]diazocin-5-yl)carbamoyl)benzo[b]thiophen-5-yl)difluoromethyl)phosphonic acid]
IC50 [1]: 1000 to 10000 nM
IC50 [2]: 300 to 3000 nM

CC(=O)N1CC[C@H]2CC[C@@H](C(=O)N3CC(C#N)C4(C3)C(=O)Nc3ccccc34)N2C(=O)[C@@H](NC(=O)c2cc3cc(C(F)(F)P(=O)(O)O)ccc3s2)C1 (stereo partly drawn) [Compound 61, ((2-(((5S,8S,10aR)-3-acetyl-8-(4′-cyano-2-oxospiro[indoline-3,3′-pyrrolidine]-1′-carbonyl)-6-oxodecahydropyrrolo[1,2-a][1,5]diazocin-5-yl)carbamoyl)benzo[b]thiophen-5-yl)difluoromethyl)phosphonic acid]
IC50 [1]: 100 to 1000 nM
IC50 [2]: 300 to 3000 nM

COC(=O)[C@@H]1CN(C(=O)[C@@H]2CC[C@@H]3CCN(CC(F)F)C[C@H](NC(=O)c4cc5cc(C(F)(F)P(=O)(O)O)ccc5s4)C(=O)N32)C[C@H]1c1ccccc1 (single isomer, unassigned) [Compound 247, ((2-(((5S,8S,10aR)-3-(2,2-difluoroethyl)-8-((3S,4R or 3R,4S)-3-(methoxycarbonyl)-4-phenylpyrrolidine-1-carbonyl)-6-oxodecahydropyrrolo[1,2-a][1,5]diazocin-5-yl)carbamoyl)benzo[b]thiophen-5-yl)difluoromethyl)phosphonic acid]
IC50 [1]: 100 to 1000 nM
IC50 [2]: ≤ 300 nM

O=C(N[C@H]1CN(C(=O)c2noc3c2CCCC3)CC[C@H]2CC[C@@H](C(=O)N3CCOCC3)N2C1=O)c1ccc2ccc(C(F)P(=O)(O)O)cc2c1 (stereo partly drawn) [Compound 358, (fluoro(7-(((5S,8S,10aR)-8-(morpholine-4-carbonyl)-6-oxo-3-(4,5,6,7-tetra-hydrobenzo[d]isoxazole-3-carbonyl)decahydropyrrolo [1,2-a][1,5]diazocin-5-yl)carbamoyl)naphthalen-2-yl)methyl)phosphonic acid]
IC50 [1]: > 10000 nM
IC50 [2]: 300 to 3000 nM

CC(=O)N1CC[C@H]2CC[C@@H](C(=O)N3CC[C@H](C#N)[C@H]3c3ccccc3)N2C(=O)[C@@H](NC(=O)c2cc3cc(C(F)(F)P(=O)(O)O)ccc3s2)C1 (relative stereo) [Compound 207, ((2-(((5S,8S,10aR)-3-acetyl-8-((rel-trans)-3-cyano-2-phenylpyrrolidine-1-carbonyl)-6-oxodecahydropyrrolo[1,2-a][1,5]diazocin-5-yl)carbamoyl)benzo[b]thiophen-5-yl)difluoromethyl)phosphonic acid]
IC50 [1]: 1000 to 10000 nM
IC50 [2]: 300 to 3000 nM

CNC(=O)Cc1cc(-c2ccccc2)ccc1NC(=O)[C@@H]1CC[C@@H]2CCN(C(C)=O)C[C@H](NC(=O)c3cc4cc(C(F)(F)P(=O)(O)O)ccc4s3)C(=O)N21 [Compound 198, ((2-(((5S,8S,10aR)-3-acetyl-8-((3-(2-(methylamino)-2-oxoethyl)-[1,1′-biphenyl]-4-yl)carbamoyl)-6-oxodecahydrpyrrolo[1,2-a][1,5]diazocin-5-yl)carbamoyl)benzo[b]thiophen-5-yl)difluoromethyl)phosphonic acid]
IC50 [1]: 100 to 1000 nM
IC50 [2]: 300 to 3000 nM
